Source: paper PMC11672294, “The Antipsychotic Drug Aripiprazole Suppresses Colorectal Cancer by Targeting LAMP2a to Induce RNH1/miR‐99a/mTOR‐Mediated Autophagy and Apoptosis” (Advanced Science, 2024)
Where a name gives a salt, the structure may show the parent alone.

Tested on: HT29
Details: 72 h, relative to DMSO, 10 µM, Relative cell viability (%)
Summary of the method: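 Cells were exposed to drug for 72 h, then to WST-1 for 2 h at 37 °C, and absorbance was read at 450 nm as viability against DMSO treatment. In the screen, each compound was applied at 10 µM.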

SMILES	Relative cell viability (%) [%]
CN1CCN(c2ccc3nc(-c4c(N)c5c(F)cccc5[nH]c4=O)[nH]c3c2)CC1 [Dovitinib (TKI258) Lactate]	3.419
CN1CCN(c2ccc3nc(-c4c(N)c5c(F)cccc5[nH]c4=O)[nH]c3c2)CC1 [Dovitinib (TKI-258) Dilactic Acid]	12.62

Same assay, conditions: 72 h, relative to DMSO; 10 µM

SMILES	Relative cell viability (%) [%]
C[C@H]1O[C@@H](O[C@H]2[C@@H](O)C[C@H](O[C@H]3[C@@H](O)C[C@H](O[C@H]4CC[C@@]5(C)[C@H](CC[C@@H]6[C@@H]5C[C@@H](O)[C@]5(C)[C@@H](C7=CC(=O)OC7)CC[C@]65O)C4)O[C@@H]3C)O[C@@H]2C)C[C@H](O)[C@@H]1O [Digoxin]	5.758
COc1ccc([C@@H]2Sc3ccccc3N(CCN(C)C)C(=O)[C@@H]2OC(C)=O)cc1 [Diltiazem HCl]	67.8
CCc1cnn2c(NCc3ccc[n+]([O-])c3)cc(N3CCCC[C@H]3CCO)nc12 [Dinaciclib (SCH727965)]	33.01
OC(CCCN1CCCCC1)(c1ccccc1)c1ccccc1 [Diphenidol HCl]	59.39
OCCN(CCO)c1nc(N2CCCCC2)c2nc(N(CCO)CCO)nc(N3CCCCC3)c2n1 [Dipyridamole]	52.54
CC(=O)O[C@@]12CO[C@@H]1C[C@H](O)[C@@]1(C)C(=O)[C@H](O)C3=C(C)[C@@H](OC(=O)[C@H](O)[C@@H](NC(=O)OC(C)(C)C)c4ccccc4)C[C@@](O)([C@@H](OC(=O)c4ccccc4)[C@H]21)C3(C)C [Docetaxel Trihydrate]	23.93
C[C@@H]1CCO[C@H]2Cn3cc(C(=O)NCc4ccc(F)cc4F)c(=O)c(O)c3C(=O)N12 [Dolutegravir (GSK1349572)]	70.87
CCCCCCCCCCCC[N+](C)(C)CCOc1ccccc1 [Domiphen Bromide]	82.12
C[C@@H](O)[C@H]1C(=O)N2C(C(=O)O)=C(S[C@@H]3CN[C@H](CNS(N)(=O)=O)C3)[C@H](C)[C@H]12 [Doripenem Hydrate]	88.32
COc1cc2nc(N3CCN(C(=O)C4COc5ccccc5O4)CC3)nc(N)c2cc1OC (stereo not shown) [Doxazosin Mesylate]	63.4
C[C@H]1O[C@@H](n2cc(F)c(=O)[nH]c2=O)[C@H](O)[C@@H]1O [Doxifluridine]	150.2
CN(C)CCOC(C)(c1ccccc1)c1ccccn1 (stereo not shown) [Doxylamine Succinate]	83.94
CCCCc1oc2ccc(NS(C)(=O)=O)cc2c1C(=O)c1ccc(OCCCN(CCCC)CCCC)cc1 [Dronedarone HCl]	86.05
C[C@]12CCC(=O)C=C1[C@@H]1C[C@@H]1[C@H]1[C@@H]3[C@@H]4C[C@@H]4[C@@]4(CCC(=O)O4)[C@@]3(C)CC[C@@H]12 [Drospirenone]	86.76
CNCC[C@H](Oc1cccc2ccccc12)c1cccs1 [Duloxetine HCl]	99.61
CCCCOc1ccc(C(=O)CCN2CCCCC2)cc1 [Dyclonine HCl]	155.2
CCN(c1cc(-c2ccc(CN3CCOCC3)cc2)cc(C(=O)NCc2c(C)cc(C)[nH]c2=O)c1C)C1CCOCC1 [EPZ-6438]	121.4
CC(C)(C)c1ccc(C(=O)CCCN2CCC(OC(c3ccccc3)c3ccccc3)CC2)cc1 [Ebastine]	13.94
CC1=NN(c2ccccc2)C(=O)C1 [Edaravone]	97.66
CN1CCc2nc(C(=O)N[C@@H]3C[C@@H](C(=O)N(C)C)CC[C@@H]3NC(=O)C(=O)Nc3ccc(Cl)cn3)sc2C1 [Edoxaban]	95.73
O=C1Nc2ccc(Cl)cc2[C@@](C#CC2CC2)(C(F)(F)F)O1 [Efavirenz]	72.65
COc1cc2c(cc1OC)CN(CCc1ccc(NC(=O)c3cccc4c(=O)c5cccc(OC)c5[nH]c34)cc1)CC2 [Elacridar (GF120918)]	48.29

SMILES	Relative cell viability (%) [%]
CCCCCCCC(=O)N[C@H](CN1CCCC1)[C@H](O)c1ccc2c(c1)OCCO2 [Eliglustat Tartrate]	81.62
O=c1oc2c(O)c(O)cc3c(=O)oc4c(O)c(O)cc1c4c23 [Ellagic acid]	74.3
CC1=NN(c2ccc(C)c(C)c2)C(=O)/C1=N\Nc1cccc(-c2cccc(C(=O)O)c2)c1O [Eltrombopag Olamine]	122
COc1cc2c(cc1Cc1cccc(Cl)c1F)c(=O)c(C(=O)O)cn2[C@H](CO)C(C)C [Elvitegravir (GS-9137, JTK-303)]	58.4
CCCCCCCCCCCC1=C(O)C(=O)C=C(O)C1=O [Embelin]	140.6
OC[C@H]1O[C@@H](c2ccc(Cl)c(Cc3ccc(O[C@H]4CCOC4)cc3)c2)[C@H](O)[C@@H](O)[C@@H]1O [Empagliflozin (BI 10773)]	75.21
C[C@H](NC(=O)C(=O)Nc1ccccc1C(C)(C)C)C(=O)N[C@@H](CC(=O)O)C(=O)COc1c(F)c(F)cc(F)c1F [Emricasan]	86.75
CCOC(=O)[C@H](CCc1ccccc1)N[C@@H](C)C(=O)N1CCC[C@H]1C(=O)O [Enalapril Maleate]	98.82
CCn1cc(C(=O)O)c(=O)c2cc(F)c(N3CCNCC3)nc21 [Enoxacin]	74.15
CCN1CCN(c2cc3c(cc2F)c(=O)c(C(=O)O)cn3C2CC2)CC1 [Enrofloxacin]	78.16
C=C1[C@H](CO)[C@@H](O)C[C@@H]1n1cnc2c(=O)[nH]c(N)nc21 [Entecavir Hydrate]	99.22
CN1CCN(c2ccc(C(=O)Nc3n[nH]c4ccc(Cc5cc(F)cc(F)c5)cc34)c(NC3CCOCC3)c2)CC1 [Entrectinib (RXDX-101)]	2.137
CNC(=O)c1ccc(N2C(=S)N(c3ccc(C#N)c(C(F)(F)F)c3)C(=O)C2(C)C)cc1F [Enzalutamide (MDV3100)]	86.76
NS(=O)(=O)NCCNc1nonc1C(=NO)Nc1ccc(F)c(Br)c1 [Epacadostat (INCB024360)]	100.9
CC(/C=C1\SC(=S)N(CC(=O)O)C1=O)=C\c1ccccc1 [Epalrestat]	135.7
NC1=NCC2c3ccccc3Cc3ccccc3N12 (stereo not shown) [Epinastine HCl]	78.48
CNC[C@H](O)c1ccc(O)c(O)c1 [Epinephrine HCl]	70.87
COc1cccc2c1C(=O)c1c(O)c3c(c(O)c1C2=O)C[C@@](O)(C(=O)CO)C[C@@H]3O[C@H]1C[C@H](N)[C@@H](O)[C@H](C)O1 [Epirubicin HCl]	10.44
C/C(=C\c1csc(C)n1)[C@@H]1C[C@@H]2O[C@]2(C)CCC[C@H](C)[C@H](O)[C@@H](C)C(=O)C(C)(C)[C@@H](O)CC(=O)O1 [Epothilone B (EPO906, Patupilone)]	7.321
O=C(O)CSCC(=O)NC1CCSC1=O (stereo not shown) [Erdosteine]	104.7
C#Cc1cccc(Nc2ncnc3cc(OCCOC)c(OCCOC)cc23)c1 [Erlotinib]	79.06

Same assay, conditions: ht29 cells, 72 h, 10 µM

SMILES	Relative cell viability (%) [%]
CC[C@H]1OC(=O)[C@H](C)[C@@H](O[C@H]2C[C@@](C)(OC)[C@@H](O)[C@H](C)O2)[C@H](C)[C@@H](O[C@@H]2O[C@H](C)C[C@H](N(C)C)[C@H]2O)[C@](C)(O)C[C@@H](C)[C@@H]2N[C@@H](COCCOC)O[C@H]([C@H]2C)[C@]1(C)O [Dirithromycin]	84.85
